Assays:
[1] = system: OVCAR-3 human ovarian adenocarcinoma tumor fragment xenograft; assay: Pharmacodynamic testing in OVCAR-3 tumor fragment xenograft model; type: in vivo, BALB/c nude mice; settings: 16 days after administration; for Tumor volume (x ± S): mean ± standard error, in mm³
Description: An anti-tumor effect of Compound 1 of the present invention in a BALB/c nude mouse animal model with subcutaneous OVCAR-3 human ovarian adenocarcinoma tumor fragment xenograft was evaluated.
BALB/c nude mice, female, 6-7 weeks old, purchased from Jiangsu Gempharmatech Biotechnology Co., Ltd.
Mice in a solvent control group were given DMA:CrEL:5% GS=10:10:80 (v:v:v).
AMG650: a proper amount of AMG-650 was weighed, proper amounts of DMA, CrEL and 5% GS were added in sequence, and the obtained system was evenly mixed by ultrasonic vortex to prepare 0.8 mg/mL and 0.4 mg/mL preparations respectively, wherein DMA, CrEL and 5% GS=10:10:80 (v:v:v).
Compound 1: a proper amount of Compound 1 was weighed, proper amounts of DMA, CrEL and 5% GS were added in sequence, and the obtained system was evenly mixed by ultrasonic vortex to prepare 0.8 mg/mL and 0.4 mg/mL preparations respectively, wherein DMA, CrEL and 5% GS=10:10:80 (v:v:v).
An appropriate OVCAR-3 tumor-bearing animal was selected, a 1 mm×1 mm×1 mm OVCAR-3 tumor fragment was acquired aseptically and placed into normal saline for later use, which was used for subcutaneous tumor inoculation in a right side of back of the BALB/c nude mice.
About 1 mm×1 mm×1 mm OVCAR-3 tumor fragment was subcutaneously inoculated in the right side of back of the female BALB/c nude mice. When an average tumor volume reached about 100-250 mm^3, the mice were randomly grouped according to the tumor size, with 6 mice in each group.
Animals in each group were given the test compound once per day according to an animal weight at a fixed time every day by oral administration (po), the animals started to be administered with the test compound for the first time on the day of grouping for 22 consecutive days, and the animal weight was recorded every day. • The 1st group (G1) was a solvent control group; • The 2nd group (G2) and the 3rd group (G3) were orally administered with AMG-650 at administration dosages of 8 mg/kg and 4 mg/kg respectively once per day (QD); and • The 4th group (G4) and the 5th group (G5) were orally administered with Compound 1 at administration dosages of 8 mg/kg and 4 mg/kg respectively once per day (QD).
Tumor formation at an inoculation site of the animals in each group was observed, and a tumor volume was measured twice per week, and calculated according to the following formula: • a tumor volume (TV), a relative tumor volume (RTV), a relative tumor proliferation rate (T/C) and a relative tumor inhibition rate (TGI) were calculated according to the following formulas:
TV (tumor volume)=½×a×b^2, wherein a and b respectively represented a tumor length and a tumor width; (1)
RTV (relative tumor volume)=Vt/V0, wherein V0 was a tumor volume measured at the time of grouping, and Vt was a tumor volume in each measurement; (2)
T/C (%)=TRTV/CRTV×100%, wherein TRTV was RTV of a treatment group, and CRTV was RTV of a solvent control group; and (3)
TGI %=(1−T/C)×100%, wherein T and C were relative tumor volumes of the treatment group and the solvent control group at a specific time point respectively. (4)

[2] = Pharmacokinetic testing in mice; type: in vivo; settings: male, mouse, ICR mice, plasma; for half-life / Cmax: 10 mg/kg, oral administration (10 mg/mL); for half-life: read-out: Half-life period T½ (converted); for Cmax: read-out: Plasma concentration Cmax; for AUC(0-inf): oral administration (10 mg/kg), read-out: Area under the curve AUC0-∞
Description: ICR mice were taken as test animals, and intragastrically administered with a control compound AMG650 and compounds 1, 18 and 29 of the present invention, and then drug concentrations in plasma at different moments were determined by an LC/MS/MS method, so as to study pharmacokinetic characteristics of the compounds of the present invention in the mice.
Control compound AMG650, and Compounds 1, 18 and 29.
ICR mice, male, 27.3-30.3 g, purchased from Vital River Laboratory Animal Technology Co., Ltd.
A proper amount of to-be-tested compound was weighed, proper amounts of DMA (N,N-dimethylacetamide), CrEL (polyoxyethylene 35 castor oil) and 5% GS (5% glucose injection) were added in sequence, and the obtained system was evenly mixed by ultrasonic vortex to prepare a 1 mg/mL preparation, wherein DMA, CrEL and 5% GS=10:10:80 (v:v:v).
ICR mice in each to-be-tested compound injection group (9 mice in each group) were fasted overnight and then intragastrically administered with the compound (PO, an administration dosage of the compound was 10 mg/kg and an administration volume of the compound was 10 mL/kg), and were fed 4 hours after administration.
0.25 hours, 0.5 hours, 1 hour, 2 hours, 4 hours, 8 hours, 10 hours and 24 hours before and after administration, about […] of blood was collected through an orbit, and a complete blood sample was placed in an EDTA-K2-containing anticoagulation tube. The collected blood sample was placed on ice, and plasma was centrifugally separated (centrifugation conditions: 1500 g, 10 minutes). The collected plasma was stored at −40~−20° C. before analysis.
A content of the to-be-tested compound in the plasma of the mice after intragastric administration was determined by LC-MS/MS.

recombinant human KIF18A = target: T1, recombinant human KIF18A (Homo sapiens, UniProt Q8NI77); assay: Inhibition on KIF18A enzyme activity (ADP-Glo); type: biochemical; settings: recombinant human KIF18A 100 nM, ATP 60 μM
T1 construct: purchased GenScript
Description: Inhibition degrees of the compounds of the present invention on recombinant human KIF18A enzyme activity in vitro were determined by the following method. An ADP-Glo™ Kinase Assay kit (article number V9102) from Promega Company was used in this method. Detailed experimental operation can be referred to the instruction of the kit.
The reaction was carried out in a 384-well microplate. The test compound and the recombinant human KIF18A protein (final concentration of 100 nM, entrusted to GenScript for expression) were added into the wells and incubated at room temperature for 20 minutes, and subsequently, ATP solution (component V915A from the ADP-Glo™ Kinase Assay kit, final concentration of 60 μM) was added to the reaction solution and the obtained system was incubated at room temperature for 20 minutes. Subsequently, 5 μL of ADP-Glo Reagent was added to the reaction system and the obtained system was incubated at room temperature for 50 minutes. Then, 10 μL of Kinase Detection Reagent was added to the reaction system, and the obtained system was incubated at room temperature for 30 minutes. After the incubation was ended, a chemiluminiscence intensity value of each well was determined by a microplate reader in a Luminescence mode.

OVCAR-3 cells = assay: Inhibition on OVCAR-3 cell proliferation (CellTiter-Glo); type: cell-based; settings: Homo sapiens, OVCAR-3 cells (TP53 R248Q mutation), 72 hours
Description: (§1) Influences of the compounds of the present invention on OVCAR-3 cell proliferation were determined by the following method. OVCAR-3 cells (containing TP53 R248Q mutation) were purchased from the Cell Bank of Shanghai Institute of Biochemistry and Cell Biology, Chinese Academy of Sciences, and cultured in an RPMI 1640 culture medium containing 1000 fetal bovine serum, 100 U penicillin and 100 μg/mL streptomycin. A cell viability was determined by a CellTiter-Glo® Luminescent Cell Viability Assay kit (Promega, article number G7573).
(§2) An experimental method was operated according to steps in the instruction of the kit, which was briefly described as follows: a test compound was dissolved in DMSO first to prepare a 10 mM stock solution, then the stock solution was diluted with the above RPMI 1640 culture medium to prepare a test sample, and a final concentration of the compound was in a range of 1000 nM-0.015 nM. Cells in a logarithmic growth phase were inoculated into a 96-well cell culture plate at a density of 1000 cells per well, cultured in a 5% CO2 incubator at 37° C. overnight, and then the test compound was added to continuously culture for 72 hours. After the culture was ended, 50 μL of CellTiter-Glo detection solution was added to each well, the plates were shaken for 5 minutes, and then allowed to stand for 10 minutes, and subsequently, a luminous value of each well of sample was read by a microplate reader in a Luminescence mode. By comparing with a numerical value of a control group (0.3% DMSO), a percentage inhibition rate of the compound at each concentration was calculated, and then nonlinear regression analysis was carried out based on concentration logarithm-inhibition rate of the compound in GraphPad Prism 5 software, so as to obtain an IC50 value of the compound in inhibition on cell proliferation, which are shown in Table 1.

HT-29 cells = assay: Inhibition on HT-29 cell proliferation (CellTiter-Glo); type: cell-based; settings: Homo sapiens, HT-29 cells (TP53 R273H mutation), 120 hours
Description: as §1, with “HT-29” for “OVCAR-3”, “R273H” for “R248Q”, “a McCOY's 5A” for “an RPMI 1640”, “10%” for “1000”
as §2, with “McCOY's 5A” for “RPMI 1640”, “120” for “72”, “µL” for “μL”, “2.” for “1.”

T1 sequence (Q8NI77 whole entry): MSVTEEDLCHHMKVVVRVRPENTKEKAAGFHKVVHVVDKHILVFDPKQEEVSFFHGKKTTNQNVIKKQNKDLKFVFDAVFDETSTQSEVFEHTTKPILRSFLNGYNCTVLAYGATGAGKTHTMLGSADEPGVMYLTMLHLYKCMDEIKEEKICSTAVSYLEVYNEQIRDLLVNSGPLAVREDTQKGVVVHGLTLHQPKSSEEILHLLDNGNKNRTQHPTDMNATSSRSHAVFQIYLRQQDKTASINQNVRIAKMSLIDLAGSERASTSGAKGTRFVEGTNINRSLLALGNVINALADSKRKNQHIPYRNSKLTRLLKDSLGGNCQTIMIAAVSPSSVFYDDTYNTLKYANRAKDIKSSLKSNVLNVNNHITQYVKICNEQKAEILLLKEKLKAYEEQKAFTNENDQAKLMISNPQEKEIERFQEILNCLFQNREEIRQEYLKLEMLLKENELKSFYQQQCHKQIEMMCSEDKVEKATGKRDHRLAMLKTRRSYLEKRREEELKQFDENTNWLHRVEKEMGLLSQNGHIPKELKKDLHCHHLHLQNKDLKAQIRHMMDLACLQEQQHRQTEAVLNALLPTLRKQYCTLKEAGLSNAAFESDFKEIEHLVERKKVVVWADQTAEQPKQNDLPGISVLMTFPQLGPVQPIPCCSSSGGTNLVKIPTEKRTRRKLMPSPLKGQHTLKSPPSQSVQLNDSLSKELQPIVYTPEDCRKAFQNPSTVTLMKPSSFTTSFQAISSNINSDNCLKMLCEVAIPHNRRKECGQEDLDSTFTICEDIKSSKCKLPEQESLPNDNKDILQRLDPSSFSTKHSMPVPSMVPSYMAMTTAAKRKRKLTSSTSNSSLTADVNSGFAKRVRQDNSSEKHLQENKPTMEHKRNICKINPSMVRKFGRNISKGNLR
T1 sequence (P68363 whole entry partner): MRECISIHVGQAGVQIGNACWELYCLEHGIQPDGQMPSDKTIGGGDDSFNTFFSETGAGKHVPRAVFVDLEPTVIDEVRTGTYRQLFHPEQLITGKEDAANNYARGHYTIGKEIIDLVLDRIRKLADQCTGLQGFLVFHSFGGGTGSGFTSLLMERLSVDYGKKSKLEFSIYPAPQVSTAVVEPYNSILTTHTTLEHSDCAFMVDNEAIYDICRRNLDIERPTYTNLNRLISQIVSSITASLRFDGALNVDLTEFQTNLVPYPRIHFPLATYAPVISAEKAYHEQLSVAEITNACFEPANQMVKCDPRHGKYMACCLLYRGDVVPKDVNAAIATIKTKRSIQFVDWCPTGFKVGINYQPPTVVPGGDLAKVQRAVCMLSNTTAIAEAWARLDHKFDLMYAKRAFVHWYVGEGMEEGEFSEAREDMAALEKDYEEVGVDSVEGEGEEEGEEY
T1 sequence (Q9BVA1 whole entry partner): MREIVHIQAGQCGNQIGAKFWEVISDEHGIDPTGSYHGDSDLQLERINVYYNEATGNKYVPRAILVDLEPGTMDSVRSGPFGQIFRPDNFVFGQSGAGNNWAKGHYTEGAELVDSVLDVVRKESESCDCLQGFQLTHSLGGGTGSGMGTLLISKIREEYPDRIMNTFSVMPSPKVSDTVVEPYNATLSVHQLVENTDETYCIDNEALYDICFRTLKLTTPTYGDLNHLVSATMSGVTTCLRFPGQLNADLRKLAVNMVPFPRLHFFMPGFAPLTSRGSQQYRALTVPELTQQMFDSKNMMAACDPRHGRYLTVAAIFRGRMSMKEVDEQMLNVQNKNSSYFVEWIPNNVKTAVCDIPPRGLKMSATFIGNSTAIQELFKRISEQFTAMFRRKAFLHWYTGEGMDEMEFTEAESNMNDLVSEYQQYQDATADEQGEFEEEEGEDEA

Row | Structure (SMILES) | TGI ([1]; 4 mg/kg po QD) [%] | Tumor volume (x ± S) ([1]; 4 mg/kg po QD) | TGI ([1]; 8 mg/kg po QD) [%] | Tumor volume (x ± S) ([1]; 8 mg/kg po QD) | half-life [2] [min] | Cmax [2] [ng/mL] | AUC(0-inf) [2] [ng·h/mL] | IC50 (recombinant human KIF18A) [nM] | IC50 (OVCAR-3 cells) [nM] | IC50 (HT-29 cells) [nM]
1 | Cc1cc(NC(=O)c2ccc(NS(=O)(=O)CCO)cc2N2CCC3(CC2)CC3)nc(N2CCC(F)(F)CC2)n1 [AMG 650, reference compound] | 15.3 | 511 ± 49 | 60.5 | 243 ± 35 |  |  |  |  |  | 
2 | O=C(Nc1cc2c(c(N3CCC(F)(F)CC3)c1)OCC2)c1ccc(NS(=O)(=O)CCO)cc1N1CCC2(CC1)CC2 [Example 29, N-(7-(4,4-difluoropiperidin-1-yl)-2,3-dihydrobenzofuran-5-yl)-4-((2-hydroxyethyl)sulfamine)-2-(6-azaspiro[2.5]octan-6-yl)benzamide] |  |  |  |  | 74.4 | 6960 | 25900 | 316 |  | 
3 | CCS(=O)(=O)Nc1ccc(C(=O)Nc2cc(N3CCC(F)(F)CC3)c3nn(C)cc3c2)c(N2CCC3(CC2)CC3)c1 [Example 18, N-(7-(4,4-difluoropiperidin-1-yl)-2-methyl-2H-indazol-5-yl)-4-(ethylsulfonamido)-2-(6-azaspiro[2.5]octan-6-yl)benzamide] |  |  |  |  | 312 | 3030 | 45900 |  | 3.3 | 7.7
